# In US20250230138A1, “COMPOUNDS HAVING A T-STRUCTURE FORMED BY AT LEAST FOUR CYCLES FOR USE IN THE TREATMENT OF CANCER AND OTHER INDICATIONS” (TheRas, Inc., priority 2022, published 2025):
# Where two headings read alike, the source gives them in different places.
# Columns and labels:
# [1] = target: Cys242 in human PIK3CA (157-299) (Homo sapiens (Human), UniProt P42336); test: Covalent modification assay using MALDI-TOF MS; assay type: biochemical; conditions: 4 h reaction time point
# Procedure: Matrix-Assisted Laser Desorption Ionization-Time of Flight Mass Spectrometry (MALDI-TOF MS) analysis of covalent modification of Cys242 in human PIK3CA (157-299) was performed.
# Reaction: 3.33 μM or 1 μM of PIK3CA (157-299) protein (produced in-house by Protein Expression Laboratory, FNLCR/Leidos Biomed) in 20 mM HEPES buffer containing 150 mM NaCl, 2 mM MgCl2, pH 7.3 was prepared freshly before assay. Twelve-μL aliquots of protein were dispensed onto low volume 384-well plate, then 470 nL DMSO and 30 nL of tested compounds from 10 mM DMSO stocks were added to appropriate wells using ECHO 555 acoustic liquid handler (Labcyte Inc.). For each reaction/assay, three blanks were prepared by mixing 12 μL of protein solution with 500 nL DMSO. The wells content was carefully mixed by aspiration, and then the plate was sealed by an adhesive cover, centrifuged at 931 g for 1 minute, and kept in the dark at room temperature until 15 min, 30 min, 2 h, or 4 h collections.
# Targetpretreatment: Before each assay MALDI target (Bruker MPT 384 ground steel BC) was pre-treated by pipetting on each spot 0.75 μL of saturated sinapinic acid in acetonitrile (ACN).
# Sample preparation: At collection time point, 2 μL of reaction mixtures were pipetted out into […] MALDI matrix solution (saturated solution of sinapinic acid in 1:1 ACN:water solution containing 0.15% trifluoroacetic acid (TFA)) deposited on 384 well polypropylene plate. The resulting solution was mixed by aspiration, centrifuged at 931 g for 1 minute, then 1.5 μL aliquots were dispensed on pre-treated MALDI target using Beckman Coulter Biomek FX^P 96/384-Span-8 Laboratory Automation Workstation. Finally, the MALDI target was dried under a mild vacuum to produce spots with a fine crystalline structure.
# Measurements: MALDI-TOF measurements were performed on Bruker Daltonics rapifleX Tissuetyper TOF-TOF mass spectrometer using linear mode and mass ranging from 16.0 to 19.6 kDa. Detector gain was set to 0.64×(459 V), sample rate to 5 GS/s, real-time smoothing to medium (175 MHz), laser smart beam pattern was set to “Custom” single smartbeam beam scan with a scan range of 40 μm on both X and Y axis, and the laser frequency was 10000 Hz. Spectra were automatically collected using the custom AutoXecute method. Laser power was auto adjusted using fuzzy control. The peak selection range was set to be between 16.0 and 18.5 kDa. Peak evaluation uses a half-width parameter set to be smaller than 40 Da for processed spectrograms (centroid peak detection; smoothed by SavitzkyGolay algorithm using 7 m/z width and 2 cycles; baseline was subtracted using a median algorithm with flatness 1 and median level 0). Fuzzy control used Proteins/Oligonucleotides protocol with minimum half-width 1/10 times above threshold. Up to 40000 satisfactory shots were collected in 10000 short steps. Dynamic termination was implemented to finish data collection when the peak signal/noise ratio was reaching a value of 1000.
# Spectra processing: Spectra were smoothed by SavitzkyGolay algorithm using 7 m/z width and three cycles. Centroid peak detection algorithm was used with signal to noise threshold set to 6, relative intensity threshold 3%, peak width 10 m/z, and median baseline subtraction using flatness of 1 and the median level of 0.1. Peak intensity and area under the peak were evaluated and recorded for all peaks between 16.0 and 19.5 kDa.
# Calculation of percent modification: Percent modification was calculated as a ratio of peak height for protein modified by compound to the sum of the peak height of remaining protein plus peak height for protein modified by a compound. If multiple modifications were observed each was calculated as a ratio of peak height for given modification versus the sum of peak heights for all observed protein species.
# pAKT in BT474 cells = test: Cell-based pAKT HTRF assay in BT474 cells; conditions: BT474 cells, 4 hr incubation, read-out: pAKT inhibition IC50 in BT474 cells
# Procedure: On Day 1, cells were seeded into 96-well plates at 2.5×10^4 cells/well in complete growth media (DMEM, 10% FBS). On Day 2, cells were treated with compounds at 0.25% DMSO. The source plate was created with compounds diluted in media at 5-fold the final assay concentration. The compounds are run in a 9-point concentration curve starting at 3 μM, with a 3-fold dilution between concentrations. 20 μL was transferred onto the cell plates (final volume in wells was 100 μL). Plates were harvested after 4 hr incubation by aspirating media and adding kit-supplied 1× supplemented lysis buffer to all wells (75 μL per well). Plates were then placed on a plate shaker and incubated at 850 rpm for an additional 30 min. The antibody mixture solution was prepared by diluting aliquoted d2 and Eu Cryptate antibodies 1:20 in kit supplied detection buffer, then mixed the diluted antibodies solutions (1:1 v:v). 4 μL of this solution was then added to a 384-well detection plate (Perkin Elmer; 6008230). Samples were homogenized by pipetting up and down and then transferred (16 μL of cell lysates) from the 96-well cell culture plate to two wells of the HTRF 384-well detection plate containing the antibody solution. Plates were centrifuged (524 g for 1 min) and allowed to incubate between 4 and 24 h at room temperature. The maximum signal is reached after 4 h incubation time and remains stable over a period of 24 hours. Therefore, readings can be made between 4 and 24 h of incubation. Plates were centrifuged again (524 g for 1 m), and analyzed on the EnVision plate reader using the following settings: Excitation 320 nm, Bandwidth […]; Emission 615 nm, Bandwidth […], Gain 10000, Flashes 100, Lag 60 μs.
# [2] = 3.33 μM protein target, 1:7.5 protein to compound ratio (compounds 1-852)
# [3] = 1 μM protein target, 1:5 protein to compound ratio (compounds 853-1279)
# [4] = Homo sapiens, BT-474, Compounds 10-999
# Cys242 in human PIK3CA (157-299), sequence (P42336 157-299): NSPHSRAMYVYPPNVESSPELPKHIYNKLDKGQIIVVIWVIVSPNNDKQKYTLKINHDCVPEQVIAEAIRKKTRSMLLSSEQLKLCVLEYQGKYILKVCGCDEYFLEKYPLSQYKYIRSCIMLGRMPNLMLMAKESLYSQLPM
SMILES,"% of modification [1, 2]",IC50 (pAKT in BT474 cells; Compounds 10-999) [nM],"% of modification [1, 3]",IC50 (pAKT in BT474 cells; [4]) [nM],IC50 (pAKT in BT474 cells; Compounds 1000-1279) [nM]
C=CC(=O)N1CCc2cc(-c3nc(-c4cnc5c(c4)CNC(=O)C5)c4ccsc4c3-c3c(F)cc(F)cc3OC(C)C)nn2CC1 [Compound 568],A (percent of modification of PIK3CA protein ≥75%),< 100,,,
C=CC(=O)N1CCn2nc(-c3nc(-c4ccc5ncn(C)c5c4)c4ccsc4c3-c3c(F)cc(F)cc3OCCOC)cc2[C@@H]1C [Compound 702],A (percent of modification of PIK3CA protein ≥75%),< 100,,,
C=CC(=O)N1CCn2nc(-c3nc(-c4ccc5c(c4)CCN(C(C)C)C5)c4ccsc4c3-c3ccc(F)cc3OC(F)F)cc2C1 [Compound 244],A (percent of modification of PIK3CA protein ≥75%),< 100,,,
C=CC(=O)N1Cc2cc(-c3nc(-c4ccc5c(c4)ncn5C)c4ccsc4c3-c3c(F)cc(F)cc3OCCOC)nn2C[C@H]1C [Compound 669],A (percent of modification of PIK3CA protein ≥75%),< 100,,,
C=CC(=O)N1CCn2nc(-c3nc(-c4cnc5cn(C)nc5c4)c4ccsc4c3-c3c(F)cc(F)cc3OCCO)cc2C1C (stereo not drawn) [Compound 913],,< 100,A (percent of modification of PIK3CA protein ≥75%),,
"C=CC(=O)N1CCn2nc(-c3nc(-c4cnn(C)c4)c4ccsc4c3-c3ccc(F)cc3OC)cc2C1 [Compound 206, 1-[2-[7-(4-fluoro-2-methoxy-phenyl)-4-(1-methylpyrazol-4-yl)thieno[3,2-c]pyridin-6-yl]-6,7-dihydro-4H-pyrazolo[1,5-a]pyrazin-5-yl]prop-2-en-1-one]",A (percent of modification of PIK3CA protein ≥75%),,,< 100,
C=CC(=O)N1Cc2cc(-c3nc(-c4cnn(CC(C)(C)O)c4)c4ccsc4c3-c3c(F)cc(F)cc3OC(C)C)nn2CC1C (stereo not drawn) [Compound 490],A (percent of modification of PIK3CA protein ≥75%),< 100,,,
C=CC(=O)N1CCn2nc(-c3nc(-c4cnnc(C)c4)c4ccsc4c3-c3c(F)cc(F)cc3OCCOC)cc2C1C (stereo not drawn) [Compound 764],A (percent of modification of PIK3CA protein ≥75%),< 100,,,
C=CC(=O)N1CCC(n2cc(-c3nc(-c4cnn5c4CNCC5)c4ccsc4c3-c3ccc(F)cc3OCCOC)cn2)CC1 [Compound 71],A (percent of modification of PIK3CA protein ≥75%),100 to 1000,,,
C=CC(=O)N1CCc2nc(-c3nc(-c4cnc5c(c4)CN(C)CC5)c4ccsc4c3-c3c(F)cc(F)cc3OC(C)C)sc2C1 [Compound 309],A (percent of modification of PIK3CA protein ≥75%),< 100,,,
C=CC(=O)N1CCn2nc(-c3nc(-c4cnn(C)c4)c4ccsc4c3-c3ccc(F)cc3OCC)cc2C1 [Compound 275],A (percent of modification of PIK3CA protein ≥75%),< 100,,,
C=CC(=O)N1CCn2nc(-c3nc(-c4ccnc(N)c4)c4ccsc4c3-c3ccc(F)cc3OCCOC)nc2C1 [Compound 193],A (percent of modification of PIK3CA protein ≥75%),< 100,,,
C=CC(=O)N1Cc2cc(-c3nc(-c4nc(C)no4)c4ccsc4c3-c3c(F)cc(F)cc3OCCOC)nn2C[C@H]1C [Compound 822],A (percent of modification of PIK3CA protein ≥75%),< 100,,,
C=CC(=O)N1CCC(n2cc(-c3nc(-c4ccc5c(c4)CCNC5)c4ccsc4c3-c3c(F)cc(F)cc3OC(C)C)cn2)C1 (stereo not drawn) [Compound 410],A (percent of modification of PIK3CA protein ≥75%),100 to 1000,,,
C=CC(=O)N1CCn2nc(-c3nc(-c4ccc5c(=O)n(C)ncc5c4)c4ccsc4c3-c3c(F)cc(F)cc3OCCOC)cc2C1C (stereo not drawn) [Compound 914],,< 100,A (percent of modification of PIK3CA protein ≥75%),,
C=CC(=O)N1CCc2ncc(-c3nc(-c4ccc(=O)n(C)c4)c4ccsc4c3-c3c(F)cc(F)cc3OC(C)C)cc2C1 [Compound 330],A (percent of modification of PIK3CA protein ≥75%),< 100,,,
C=CC(=O)N1CCn2nc(-c3nc(-c4ccc5c(C)n(C)nc5c4)c4ccsc4c3-c3c(F)cc(F)cc3OCCO)cc2C1C (stereo not drawn) [Compound 1076],,,A (percent of modification of PIK3CA protein ≥75%),,< 100
C=CC(=O)N1CCc2nc(-c3nc(-c4ccc5nn(C)cc5c4)c4ccsc4c3-c3c(F)cc(F)cc3OCCOC)sc2C1 [Compound 427],A (percent of modification of PIK3CA protein ≥75%),< 100,,,
C=CC(=O)N1CCn2nc(-c3nc(-c4cnn(C)c4)c4ccsc4c3-c3c(F)cc(F)cc3OCCOC)cc2[C@@H]1C [Compound 649],A (percent of modification of PIK3CA protein ≥75%),< 100,,,
C=CC(=O)N1Cc2cc(-c3nc(-c4ccc5c(cnn5C)c4)c4ccsc4c3-c3c(F)cc(F)cc3OC)nn2C(C)C1 (stereo not drawn) [Compound 854],,< 100,A (percent of modification of PIK3CA protein ≥75%),,
C=CC(=O)N1Cc2cc(-c3nc(-c4ccc5c(c4)CCS5(=O)=O)c4ccsc4c3-c3c(F)cc(F)cc3OCCOC)nn2C[C@H]1C [Compound 794],A (percent of modification of PIK3CA protein ≥75%),> 3000,,,
"C=CC(=O)N1CCC(CO)(n2cc(-c3nc(-c4ccc5c(c4)CCNC5)c4ccsc4c3-c3ccc(F)cc3OC)cn2)CC1 [Compound 180, 1-[4-[4-[7-(4-fluoro-2-methoxy-phenyl)-4-(1,2,3,4-tetrahydroisoquinolin-6-yl)thieno[3,2-c]pyridin-6-yl]pyrazol-1-yl]-4-(hydroxymethyl)-1-piperidyl]prop-2-en-1-one]",A (percent of modification of PIK3CA protein ≥75%),,,100 to 1000,
C=CC(=O)N1CCn2nc(-c3nc(-c4ccc(=O)n(C(C)C)c4)c4ccsc4c3-c3c(F)cc(F)cc3OCCOC)cc2C1C (stereo not drawn) [Compound 987],,< 100,A (percent of modification of PIK3CA protein ≥75%),,
C=CC(=O)N1CCn2nc(-c3nc(-c4ccc5c(c4)C(=O)NCC5)c4ccsc4c3-c3c(F)cc(F)cc3OCCO)cc2[C@H]1C [Compound 955],,< 100,A (percent of modification of PIK3CA protein ≥75%),,
